Results reported in US9125805B2, “Stable formulations for parenteral injection of small molecule drugs” (Xeris Pharmaceuticals, Inc., priority 2012, dated 2015).
Converted amounts (≈) assume the structure as drawn. Read-outs that look alike come from different tables or passages of the source.

Columns and labels:
physchem = details: organic solvent or mixture, thermodynamic from solid

Q: Which solubility (physchem; Solubility (class)) does the source give for `CC(=O)Oc1ccccc1C(=O)O` [Acetylsalicylic acid] here?
A: 30 to 100 mg/mL (≈ 167 to 555 mM)

Q: For `NC[C@H]1O[C@H](O[C@H]2[C@H](O)[C@@H](O[C@H]3O[C@H](CO)[C@@H](O)[C@H](N)[C@H]3O)[C@H](N)C[C@@H]2N)[C@H](N)C[C@@H]1O` [Tobramycin], which solubility (physchem; Solubility) is on record?
A: < 0.1 mg/mL

Q: What does the source list for Albuterol sulfate?
A: Solubility (class) (solvent 70:30 (v/v) DMSO:NMP): Slightly soluble; solubility (solvent 70:30 (v/v) DMSO:NMP): 5 mg/mL; Solubility (class) (solvent Benzyl Benzoate): Practically insoluble; solubility (solvent Benzyl Benzoate): <0.1 mg/mL; Solubility (class) (solvent DMSO): Slightly soluble; solubility (solvent DMSO): 5 mg/mL; Solubility (class) (solvent NMP): Practically insoluble; solubility (solvent NMP): <0.1 mg/mL; Solubility (class) (solvent PEG 300): Practically insoluble; solubility (solvent PEG 300): <0.1 mg/mL; Solubility (class) (solvent Triacetin): Practically insoluble; solubility (solvent Triacetin): <0.1 mg/mL

Q: With `CO[C@H]1/C=C/O[C@@]2(C)Oc3c(C)c(O)c4c(O)c(c(/C=N/N5CCN(C)CC5)c(O)c4c3C2=O)NC(=O)/C(C)=C\C=C\[C@H](C)[C@H](O)[C@@H](C)[C@@H](O)[C@@H](C)[C@H](OC(C)=O)[C@@H]1C` [Rifampicin] as the molecule, how does the solubility (physchem; Solubility (class)) read?
A: 30 to 100 mg/mL (≈ 36.5 to 122 mM)

Q: With `OC(Cn1cncn1)(Cn1cncn1)c1ccc(F)cc1F` [Fluconazole] as the molecule, how does the “Solubility (class)” value (solvent 70:30 (v/v) DMSO:NMP) read?
A: Freely soluble

Q: What about the “Solubility (class)” value (solvent Benzyl Benzoate) of the same molecule?
A: Slightly soluble

Q: And the “Solubility (class)” value (solvent DMSO)?
A: Freely soluble

Q: And the “Solubility (class)” value (solvent NMP)?
A: Freely soluble

Q: What about the “Solubility (class)” value (solvent Triacetin) of the same molecule?
A: Slightly soluble

Q: And the solubility (physchem; Solubility (class), solvent PEG 300)?
A: 30 to 100 mg/mL (≈ 98 to 327 mM)

Q: What about the solubility (physchem; Solubility, solvent 70:30 (v/v) DMSO:NMP) of the same molecule?
A: 850 mg/mL (≈ 2780 mM)

Q: What about the solubility (physchem; Solubility, solvent Benzyl Benzoate) of the same molecule?
A: 5 mg/mL (≈ 16.3 mM)

Q: And the solubility (physchem; Solubility, solvent DMSO)?
A: 900 mg/mL (≈ 2940 mM)

Q: And the solubility (physchem; Solubility, solvent NMP)?
A: 800 mg/mL (≈ 2610 mM)

Q: And the solubility (physchem; Solubility, solvent PEG 300)?
A: 50 mg/mL (≈ 163 mM)

Q: And the solubility (physchem; Solubility, solvent Triacetin)?
A: 5 mg/mL (≈ 16.3 mM)

Q: With `O=C(O)c1cc(=O)c2c(OCC(O)COc3cccc4oc(C(=O)O)cc(=O)c34)cccc2o1` [Cromolyn sodium] as the molecule, how does the solubility (physchem; Solubility (class)) read?
A: 30 to 100 mg/mL
